Measured values as given in patent publication US12415834B2, “GhR-binding peptide and composition comprising same” (priority 2021, dated 2025).
Starred links: 1 amine or outer side, 2 acyl side, 3 side chain; linkers in the order of their positions; H or OH if unused. Positions of bridges follow the written chain, without caps; N, C: chain ends. Non-standard residues stand in square brackets, D forms with d. Residues, ends and D or L forms follow the SMILES beside them. Groups on a side chain read outwards from the residue. *: point of attachment. X15 = NC(=O)[C@H](CCCCN*)NC(=O)COCCOCCNC(=O)COCCOCCNC(=O)CC[C@H](NC(=O)CC[C@H](NC(=O)CCCCCCCCCCCCCCCC(=O)O)C(=O)O)C(=O)O; X3 = NC(=O)[C@H](CCCCN*)NC(=O)CC[C@H](NC(=O)CC[C@H](NC(=O)CCCCCCCCCCCCCCC(=O)O)C(=O)O)C(=O)O; X19 = Cc1ccc(CCCC(=O)N[C@@H](CCC(=O)N[C@@H](CCC(=O)N[C@@H](CCCCN*)C(N)=O)C(=O)O)C(=O)O)cc1; Trp(1-CH2CO) = O=C([C@H](Cc1cn(CC(=O)[*:3])c2ccccc12)N[*:1])[*:2]; Trp(5-OMe) = COc1ccc2[nH]cc(C[C@H](N)C(=O)O)c2c1; Butanoyl(4-(4-I-phenyl)) = O=C(CCCc1ccc(I)cc1)*; Trp(5-OH) = N[C@@H](Cc1c[nH]c2ccc(O)cc12)C(=O)O; Phe(4-COOH) = N[C@@H](Cc1ccc(C(=O)O)cc1)C(=O)O; Piperazinyl(4-CH2COOH) = O=C(O)CN1CCN(*)CC1; X7 = O=C(O)CN1CCC(N[*:1])(C(=O)[*:2])CC1; C16 diacid = O=C(O)CCCCCCCCCCCCCCC(=O)*; γGlu = O=C(O)[C@H](CCC(=O)[*:2])N[*:1]; X9 = O=C(CCCc1ccc(-c2ccccc2)cc1)*; NMeK = CN[C@@H](CCCCN)C(=O)O; Aib = CC(C)(N)C(=O)O; CO = O=C([*:1])[*:2]

Biological target: T1, Recombinant human GhR-Fc protein (Homo sapiens, UniProt P10912)
T1 construct: purchased R&D Systems
Assay: SPR binding assay (Biacore T200, single-cycle kinetics) of peptides against immobilized human GhR-Fc
Details: not given
Method in brief: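 Human GhR-Fc amine-coupled to a CM5 chip at pH 4.0; running buffer HBS-EP with 1% DMSO. Peptides measured by single-cycle kinetics on Biacore T200, with solvent correction and baseline subtraction. KD calculated from fitted ka and kd.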

T1 sequence (P10912 with tags, fused parts or gaps limits assumed): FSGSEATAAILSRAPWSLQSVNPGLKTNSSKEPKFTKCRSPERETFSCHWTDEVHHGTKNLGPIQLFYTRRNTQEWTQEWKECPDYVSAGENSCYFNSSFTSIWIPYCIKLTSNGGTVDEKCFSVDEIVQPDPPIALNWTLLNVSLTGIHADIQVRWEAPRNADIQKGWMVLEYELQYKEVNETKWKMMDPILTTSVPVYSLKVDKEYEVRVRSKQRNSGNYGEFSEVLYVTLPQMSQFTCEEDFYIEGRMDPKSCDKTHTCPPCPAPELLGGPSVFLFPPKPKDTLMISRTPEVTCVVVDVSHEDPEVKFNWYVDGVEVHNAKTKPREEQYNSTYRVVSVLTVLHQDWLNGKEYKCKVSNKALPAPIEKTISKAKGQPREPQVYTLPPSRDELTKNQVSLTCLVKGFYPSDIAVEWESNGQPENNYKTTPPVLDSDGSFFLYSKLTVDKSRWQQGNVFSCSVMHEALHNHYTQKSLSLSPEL

Compound | Kd
COc1ccc2[nH]cc(C[C@@H]3NC(=O)[C@H](CC(N)=O)NC(=O)[C@H](CO)NC(=O)[C@H](C(C)C)NC(=O)[C@H](C(C)C)NC(=O)[C@H](CCCCNC(=O)CC[C@H](NC(=O)CCCc4ccc(-c5ccccc5)cc4)C(=O)O)N(C)C(=O)[C@H](Cc4ccc(O)cc4)NC(=O)CSC[C@@H](C(=O)NCC(=O)N4CCC[C@H]4C(=O)N[C@H](CO)C(=O)N[C@H](CO)C(=O)N[C@H](CO)C(N)=O)NC(=O)[C@H](C(C)C)NC(=O)C(C)(C)NC(=O)[C@H](Cc4c[nH]c5ccc(O)cc45)NC(=O)[C@H](CCCCN)NC(=O)[C@H](Cc4ccc(C(=O)O)cc4)NC3=O)c2c1 [Compound 56] ({CH2CO}-Y[NMeK]([γGlu-X9])VVSN[Trp(5-OMe)][Phe(4-COOH)]K[Trp(5-OH)][Aib]VCGP[dS][dS][dS]-NH2; thioether N-13) | 2.87 nM

Same assay, conditions: SPR, hGhR; Table 1 bicyclic peptides; KD calculated from ka and kd; read-out: KD

Compound | Kd
CC(C)[C@@H]1NC(=O)[C@H](C(C)C)NC(=O)[C@@H]2CCCCNC(=O)Cn3cc(c4ccccc43)C[C@H](NC(=O)[C@H](CC(N)=O)NC(=O)[C@H](CO)NC1=O)C(=O)N[C@@H](Cc1ccc(C(=O)O)cc1)C(=O)N[C@@H](CCCCN)C(=O)N[C@@H](Cc1c[nH]c3ccc(O)cc13)C(=O)NC(C)(C)C(=O)N[C@@H](C(C)C)C(=O)N[C@H](C(=O)NCCCC[C@H](NC(=O)COCCOCCNC(=O)COCCOCCNC(=O)CC[C@H](NC(=O)CC[C@H](NC(=O)CCCCCCCCCCCCCCCC(=O)O)C(=O)O)C(=O)O)C(N)=O)CSCC(=O)N[C@@H](Cc1ccc(C(=O)O)cc1)C(=O)N2C [Compound 65] ({CH2CO}-[Phe(4-COOH)][NMeK]VVSN[Trp(1-CH2CO)][Phe(4-COOH)]K[Trp(5-OH)][Aib]VC-X15; lactam 2-7; thioether N-13) | 3.33 nM
Cc1ccc(CCCC(=O)N[C@@H](CCC(=O)N[C@@H](CCC(=O)N[C@@H](CCCCNC(=O)[C@@H]2CSCC(=O)N[C@@H](Cc3ccc(C(=O)O)cc3)C(=O)N(C)[C@H]3CCCCNC(=O)Cn4cc(c5ccccc54)C[C@H](NC(=O)[C@H](CC(N)=O)NC(=O)[C@H](CO)NC(=O)[C@H](C(C)C)NC(=O)[C@H](C(C)C)NC3=O)C(=O)N[C@@H](Cc3ccc(C(=O)O)cc3)C(=O)N[C@@H](CCCCN)C(=O)N[C@@H](Cc3c[nH]c4ccc(O)cc34)C(=O)NC(C)(C)C(=O)N[C@@H](C(C)C)C(=O)N2)C(N)=O)C(=O)O)C(=O)O)cc1 [Compound 12] ({CH2CO}-[Phe(4-COOH)][NMeK]VVSN[Trp(1-CH2CO)][Phe(4-COOH)]K[Trp(5-OH)][Aib]VC-X19; lactam 2-7; thioether N-13) | 1.95 nM
CC(C)[C@@H]1NC(=O)[C@H](C(C)C)NC(=O)[C@@H]2CCCCNC(=O)Cn3cc(c4ccccc43)C[C@H](NC(=O)[C@H](CC(N)=O)NC(=O)[C@H](CO)NC1=O)C(=O)N[C@@H](Cc1ccc(C(=O)O)cc1)C(=O)N[C@@H](CCCCN)C(=O)N[C@@H](Cc1c[nH]c3ccc(O)cc13)C(=O)NC(C)(C)C(=O)N[C@@H](C(C)C)C(=O)N[C@H](C(=O)NCCCC[C@H](NC(=O)CC[C@H](NC(=O)CC[C@H](NC(=O)CCCCCCCCCCCCCCC(=O)O)C(=O)O)C(=O)O)C(N)=O)CSCC(=O)N[C@@H](Cc1ccc(C(=O)O)cc1)C(=O)N2C [Compound 11] ({CH2CO}-[Phe(4-COOH)][NMeK]VVSN[Trp(1-CH2CO)][Phe(4-COOH)]K[Trp(5-OH)][Aib]VC-X3; lactam 2-7; thioether N-13) | 2.85 nM
CC(C)[C@@H]1NC(=O)[C@H](C(C)C)NC(=O)[C@@H]2CCCCNC(=O)Cn3cc(c4ccccc43)C[C@H](NC(=O)[C@H](CC(N)=O)NC(=O)[C@H](CO)NC1=O)C(=O)N[C@@H](Cc1ccc(O)cc1)C(=O)N[C@@H](CCCCN)C(=O)N[C@@H](Cc1c[nH]c3ccc(O)cc13)C(=O)NC1(CCN(CC(=O)O)CC1)C(=O)N[C@@H](C(C)C)C(=O)N[C@H](C(=O)NCC(=O)N1CCC[C@H]1C(=O)N[C@H](CO)C(=O)N[C@H](CO)C(=O)N[C@H](CO)C(=O)N[C@@H](CCCCNC(=O)CC[C@H](NC(=O)CC[C@H](NC(=O)CCCCCCCCCCCCCCC(=O)O)C(=O)O)C(=O)O)C(N)=O)CSCC(=O)N[C@@H](Cc1ccc(O)cc1)C(=O)N2C [Compound 30] ({CH2CO}-Y[NMeK]VVSN[Trp(1-CH2CO)]YK[Trp(5-OH)][X7]VCGP[dS][dS][dS]K([γGlu-γGlu-C16 diacid])-NH2; lactam 2-7; thioether N-13) | 2.26 nM
CC(C)[C@@H]1NC(=O)[C@H](C(C)C)NC(=O)[C@@H]2CCCCNC(=O)Cn3cc(c4ccccc43)C[C@H](NC(=O)[C@H](CC(N)=O)NC(=O)[C@H](CO)NC1=O)C(=O)N[C@@H](Cc1ccc(O)cc1)C(=O)N[C@@H](CCCCN)C(=O)N[C@@H](Cc1c[nH]c3ccc(O)cc13)C(=O)NC(C)(C)C(=O)N[C@@H](C(C)C)C(=O)N[C@H](C(=O)NCCCC[C@H](NC(=O)CC[C@H](NC(=O)CC[C@H](NC(=O)CCCCCCCCCCCCCCC(=O)O)C(=O)O)C(=O)O)C(N)=O)CSCC(=O)N[C@@H](Cc1ccc(C(=O)O)cc1)C(=O)N2C [Compound 19] ({CH2CO}-[Phe(4-COOH)][NMeK]VVSN[Trp(1-CH2CO)]YK[Trp(5-OH)][Aib]VC-X3; lactam 2-7; thioether N-13) | 1.93 nM
CC(C)[C@@H]1NC(=O)[C@H](C(C)C)NC(=O)[C@@H]2CCCCNC(=O)Cn3cc(c4ccccc43)C[C@H](NC(=O)[C@H](CC(N)=O)NC(=O)[C@H](CO)NC1=O)C(=O)N[C@@H](Cc1ccc(O)cc1)C(=O)N[C@@H](CCCCN)C(=O)N[C@@H](Cc1c[nH]c3ccc(O)cc13)C(=O)NC(C)(C)C(=O)N[C@@H](C(C)C)C(=O)N[C@H](C(=O)NCC(=O)N1CCC[C@H]1C(=O)N[C@H](CO)C(=O)N[C@H](CO)C(=O)N[C@H](CO)C(=O)N[C@@H](CCCCNC(=O)CC[C@H](NC(=O)CC[C@H](NC(=O)CCCCCCCCCCCCCCC(=O)O)C(=O)O)C(=O)O)C(N)=O)CSCC(=O)N[C@@H](Cc1ccc(C(=O)O)cc1)C(=O)N2C [Compound 20] ({CH2CO}-[Phe(4-COOH)][NMeK]VVSN[Trp(1-CH2CO)]YK[Trp(5-OH)][Aib]VCGP[dS][dS][dS]K([γGlu-γGlu-C16 diacid])-NH2; lactam 2-7; thioether N-13) | 1.25 nM
CC(C)[C@@H]1NC(=O)[C@H](C(C)C)NC(=O)[C@@H]2CCCCNC(=O)Cn3cc(c4ccccc43)C[C@H](NC(=O)[C@H](CC(N)=O)NC(=O)[C@H](CO)NC1=O)C(=O)N[C@@H](Cc1ccc(O)cc1)C(=O)N[C@@H](CCCCN)C(=O)N[C@@H](Cc1c[nH]c3ccc(O)cc13)C(=O)NC(C)(C)C(=O)N[C@@H](C(C)C)C(=O)N[C@H](C(=O)NCC(=O)N1CCC[C@H]1C(=O)N[C@H](CO)C(=O)N[C@H](CO)C(=O)N[C@H](CO)C(=O)N[C@@H](CCCCNC(=O)CC[C@H](NC(=O)CC[C@H](NC(=O)CCCCCCCCCCCCCCC(=O)O)C(=O)O)C(=O)O)C(N)=O)CSCC(=O)N[C@@H](Cc1ccc(O)cc1)C(=O)N2C [Compound 31] ({CH2CO}-Y[NMeK]VVSN[Trp(1-CH2CO)]YK[Trp(5-OH)][Aib]VCGP[dS][dS][dS]K([γGlu-γGlu-C16 diacid])-NH2; lactam 2-7; thioether N-13) | 0.92 nM

Same assay, conditions: SPR, hGhR; Table 2 monocyclic peptides; KD calculated from ka and kd; read-out: KD

Compound | Kd
COc1ccc2[nH]cc(C[C@@H]3NC(=O)[C@H](CC(N)=O)NC(=O)[C@H](CO)NC(=O)[C@H](C(C)C)NC(=O)[C@H](C(C)C)NC(=O)[C@H](CCCCNC(=O)CC[C@H](NC(=O)CC[C@H](NC(=O)CCCc4ccc(I)cc4)C(=O)O)C(=O)O)N(C)C(=O)[C@H](Cc4ccc(O)cc4)NC(=O)CSC[C@@H](C(N)=O)NC(=O)[C@H](C(C)C)NC(=O)C(C)(C)NC(=O)[C@H](Cc4c[nH]c5ccc(O)cc45)NC(=O)[C@H](CCCCNC(=O)N4CCN(CC(=O)O)CC4)NC(=O)[C@H](Cc4ccc(C(=O)O)cc4)NC3=O)c2c1 [Compound 47] ({CH2CO}-Y[NMeK]([γGlu-γGlu-Butanoyl(4-(4-I-phenyl))])VVSN[Trp(5-OMe)][Phe(4-COOH)]K([CO-Piperazinyl(4-CH2COOH)])[Trp(5-OH)][Aib]VC-NH2; thioether N-13) | 7.38 nM
COc1ccc2[nH]cc(C[C@@H]3NC(=O)[C@H](CC(N)=O)NC(=O)[C@H](CO)NC(=O)[C@H](C(C)C)NC(=O)[C@H](C(C)C)NC(=O)[C@H](CCCCNC(=O)CC[C@H](NC(=O)CCCc4ccc(I)cc4)C(=O)O)N(C)C(=O)[C@H](Cc4ccc(C(=O)O)cc4)NC(=O)CSC[C@@H](C(N)=O)NC(=O)[C@H](C(C)C)NC(=O)C(C)(C)NC(=O)[C@H](Cc4c[nH]c5ccc(O)cc45)NC(=O)[C@H](CCCCNC(=O)N4CCN(CC(=O)O)CC4)NC(=O)[C@H](Cc4ccc(C(=O)O)cc4)NC3=O)c2c1 [Compound 35] ({CH2CO}-[Phe(4-COOH)][NMeK]([γGlu-Butanoyl(4-(4-I-phenyl))])VVSN[Trp(5-OMe)][Phe(4-COOH)]K([CO-Piperazinyl(4-CH2COOH)])[Trp(5-OH)][Aib]VC-NH2; thioether N-13) | 5.47 nM
COc1ccc2[nH]cc(C[C@@H]3NC(=O)[C@H](CC(N)=O)NC(=O)[C@H](CO)NC(=O)[C@H](C(C)C)NC(=O)[C@H](C(C)C)NC(=O)[C@H](CCCCNC(=O)CC[C@H](NC(=O)CCCc4ccc(I)cc4)C(=O)O)N(C)C(=O)[C@H](Cc4ccc(C(=O)O)cc4)NC(=O)CSC[C@@H](C(N)=O)NC(=O)[C@H](C(C)C)NC(=O)C4(CCN(CC(=O)O)CC4)NC(=O)[C@H](Cc4c[nH]c5ccc(O)cc45)NC(=O)[C@H](CCCCN)NC(=O)[C@H](Cc4ccc(C(=O)O)cc4)NC3=O)c2c1 [Compound 36] ({CH2CO}-[Phe(4-COOH)][NMeK]([γGlu-Butanoyl(4-(4-I-phenyl))])VVSN[Trp(5-OMe)][Phe(4-COOH)]K[Trp(5-OH)][X7]VC-NH2; thioether N-13) | 10.8 nM
COc1ccc2[nH]cc(C[C@@H]3NC(=O)[C@H](CC(N)=O)NC(=O)[C@H](CO)NC(=O)[C@H](C(C)C)NC(=O)[C@H](C(C)C)NC(=O)[C@H](CCCCNC(=O)CC[C@H](NC(=O)CC[C@H](NC(=O)CCCc4ccc(I)cc4)C(=O)O)C(=O)O)N(C)C(=O)[C@H](Cc4ccc(O)cc4)NC(=O)CSC[C@@H](C(N)=O)NC(=O)[C@H](C(C)C)NC(=O)C4(CCN(CC(=O)O)CC4)NC(=O)[C@H](Cc4c[nH]c5ccc(O)cc45)NC(=O)[C@H](CCCCN)NC(=O)[C@H](Cc4ccc(C(=O)O)cc4)NC3=O)c2c1 [Compound 50] ({CH2CO}-Y[NMeK]([γGlu-γGlu-Butanoyl(4-(4-I-phenyl))])VVSN[Trp(5-OMe)][Phe(4-COOH)]K[Trp(5-OH)][X7]VC-NH2; thioether N-13) | 4.13 nM
